In brackets after ≈: the same amount, converted by molar mass. Where two headings read alike, the source gives them in different places.
What was measured:
[1] = test system: RN4220/pYH4; assay: MIC against S. aureus RN4220 carrying empty expression vector pYH4 (control), with and without inducer; type: cell-based
Procedure: (§1) The pYH4 expression vector was used to clone the FabI ORF and it served as a control for the experiment.
(§2) The murA1 ORF is cloned into the pYH4 expression vector, the features of which are described above, and the anhydrotetracycline inducer is added to a sample containing the murA1 ORF. In addition, a control sample containing only the vector is induced and the MICs of the induced and uninduced vector are determined. […] This confirms that murA1 is a target of phosphomycin.
as §2, with “metRS” for “murA1”, “ORF. The MICs for the anitmicrobial compound of induced and uninduced samples are determined.” for “ORF.”, “the exemplified antimicrobial compound.” for “phosphomycin.”

[2] = test system: RN4220/pYH4MurA1; assay: MIC of phosphomycin against S. aureus RN4220 carrying the murA1 ORF clone, with and without inducer; type: cell-based
Procedure: as §2

[3] = test system: RN4220/pYH4-fabI; assay: MIC of triclosan against S. aureus RN4220 carrying the fabI ORF clone, with and without inducer; type: cell-based; settings: Staphylococcus aureus, strain RN4220/pYH4-fabI, read-out: MIC concentration of triclosan necessary to inhibit the strain
Description: This confirms that FabI is a target of triclosan.
as §1

[4] = test system: RN4220/pYH4 and RN4220/pYH4-fabI mixed in the ratio of 100:1; assay: Selection of triclosan resistant colonies on TSA plates from a mixed culture; type: cell-based, S. aureus; settings: approximately 1,000 bacterial cells plated
Procedure: In the experiment, a S. aureus strain with expression vector (RN4220/pYH4) was combined with the expression vector and FabI open reading frame (RN4220/pYH4-fabI) in the ratio of 100:1. Then, approximately 1,000 bacterial cells of this mixture were plated onto TSA plates containing: (1) no triclosan (-triclosan); (2) 0.25 μg/ml of triclosan; and (3) 0.25 μg/ml of triclosan plus 0.4 μg/ml anhydrotetracycline inducer. […] The third plate was indicative of FabI-containing clones which are confirmed to be targets of the triclosan antimicrobial compound.

Row | Compound | MIC of phosphomycin ([1]; strain RN4220/pYH4, +ATc) [µg/mL] | MIC of phosphomycin ([1]; strain RN4220/pYH4, −Atc) [µg/mL] | MIC of the induced murA1 gene relative to the uninduced vector alone ([2]; induced murA1 clone vs uninduced vector) [fold] | MIC of phosphomycin ([2]; strain RN4220/pYH4MurA1, +ATc) [µg/mL] | MIC of phosphomycin ([2]; strain RN4220/pYH4MurA1, −Atc) [µg/mL] | MIC of the uninduced murA1 gene relative to the uninduced vector alone ([2]; uninduced murA1 clone vs uninduced vector) [fold] | MIC ([1]; Staphylococcus aureus, strain RN4220/pYH4, −inducer, read-out: MIC concentration of triclosan necessary to inhibit the strain) [µg/mL] | MIC concentration of triclosan necessary to inhibit the strain ([1]; strain RN4220/pYH4, +inducer) [µg/mL] | MIC ([3]; +inducer) [µg/mL] | MIC ([3]; −inducer) [µg/mL] | colonies grown on TSA plate ([4]; 0.25 μg/ml triclosan plus 0.4 μg/ml anhydrotetracycline inducer) [colonies] | colonies grown on TSA plate ([4]; 0.25 μg/ml triclosan, no inducer)
1 | C[C@@H]1O[C@@H]1P(=O)(O)O [phosphomycin] | 2 | 4 | 64 | 256 | 32 | 8 |  |  |  |  |  | 
2 | Oc1cc(Cl)ccc1Oc1ccc(Cl)cc1Cl [triclosan] |  |  |  |  |  |  | 0.0625 (≈ 0.216 µM) | 0.0625 | 1 | 0.0625 | 15 | no colonies grew

— patent publication US20060240505A1, “Identification of Targets of Antimicrobial Compounds” (priority 2000, published 2006)
